Data published in ChEMBL document CHEMBL1201862, “PubChem BioAssay data set” (2004).
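Compound exposure: 48 hours, 5 concentrations, 96-well plates. GI50 = concentration required for 50% inhibition of growth.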 Activity calls are given as the source filed them. Rule as the data show it: active = GI50 up to about 1.1 µM and inactive = higher.

What was measured:
Assay in all cases: NCI anticancer screen, dose series, 48 h
786-0 = tested on: 786-0
A549 = tested on: A549
COLO 205 = tested on: COLO 205
EKVX = tested on: EKVX
HCC 2998 = tested on: HCC 2998
HCT-15 = tested on: HCT-15
HL-60 = tested on: HL-60
HOP-62 = tested on: HOP-62
K562 = tested on: K562
KM12 = tested on: KM12
MDA-MB-435 = tested on: MDA-MB-435
NCI-H23 = tested on: NCI-H23
NCI-H522 = tested on: NCI-H522
NCI/ADR-RES = tested on: NCI/ADR-RES
OVCAR-3 = tested on: OVCAR-3
OVCAR-8 = tested on: OVCAR-8
RXF 393 = tested on: RXF 393
SK-MEL-5 = tested on: SK-MEL-5
SN12C = tested on: SN12C
UO-31 = tested on: UO-31

Measured: GI50

CCC(=O)NI1OC(=O)c2ccccc21
inactive: 786-0 > 100 µM | A549 > 100 µM | COLO 205 > 100 µM | EKVX > 100 µM | HCC 2998 > 100 µM | HL-60 47.3 µM | HOP-62 > 100 µM | K562 48.5 µM | KM12 > 100 µM | MDA-MB-435 > 100 µM | NCI-H23 > 100 µM | NCI-H522 15.9 µM | NCI/ADR-RES > 100 µM | OVCAR-3 > 100 µM | OVCAR-8 > 100 µM | RXF 393 > 100 µM | SK-MEL-5 > 100 µM | SN12C > 100 µM | UO-31 > 100 µM
43.5 µM: HCT-15

N#Cc1c2c(c(Nc3ccc(F)cc3)n3c1nc1ccccc13)CCC2
3.99 µM: HCT-15
inactive: 786-0 1.78 µM | A549 5.93 µM | COLO 205 6.31 µM | EKVX 11.3 µM | HCC 2998 18.4 µM | HL-60 3.96 µM | HOP-62 3.03 µM | K562 9.44 µM | KM12 6.55 µM | MDA-MB-435 3.25 µM | NCI-H23 4.93 µM | NCI-H522 2.2 µM | NCI/ADR-RES 5.27 µM | OVCAR-3 7.89 µM | OVCAR-8 2.36 µM | RXF 393 2.14 µM | SK-MEL-5 3.54 µM | SN12C 2.1 µM | UO-31 2.45 µM

CCc1nc(N)nc(N)c1-c1ccc([N+](=O)[O-])c(Cl)c1
active: A549 0.416 µM | HL-60 0.855 µM | K562 0.227 µM
1.35 µM: HCT-15
inactive: 786-0 1.77 µM | COLO 205 12.5 µM | EKVX 5.74 µM | HCC 2998 10 µM | HOP-62 7.53 µM | KM12 6.87 µM | MDA-MB-435 1.99 µM | NCI-H23 3.56 µM | NCI-H522 6.1 µM | NCI/ADR-RES 5.83 µM | OVCAR-3 11.5 µM | OVCAR-8 3.7 µM | RXF 393 16.1 µM | SK-MEL-5 2.19 µM | SN12C 13.3 µM | UO-31 9.04 µM

Nc1nc(-c2cccs2)cs1
83.4 µM: HCT-15
inactive: 786-0 > 100 µM | A549 58.6 µM | COLO 205 88.1 µM | EKVX 43.3 µM | HCC 2998 57.9 µM | HL-60 > 100 µM | HOP-62 > 100 µM | K562 > 100 µM | KM12 81.7 µM | MDA-MB-435 79.8 µM | NCI-H23 > 100 µM | NCI-H522 34.9 µM | NCI/ADR-RES 91 µM | OVCAR-3 > 100 µM | OVCAR-8 58.7 µM | RXF 393 > 100 µM | SK-MEL-5 73.3 µM | SN12C > 100 µM | UO-31 54.6 µM

Cc1cn2c(C)csc2c1P(=O)(OC(C)C)OC(C)C
> 100 µM: HCT-15
inactive: 786-0 > 100 µM | A549 > 100 µM | COLO 205 > 100 µM | EKVX > 100 µM | HCC 2998 > 100 µM | HL-60 > 100 µM | HOP-62 > 100 µM | K562 > 100 µM | KM12 > 100 µM | MDA-MB-435 > 100 µM | NCI-H23 > 100 µM | NCI-H522 > 100 µM | NCI/ADR-RES > 100 µM | OVCAR-3 > 100 µM | OVCAR-8 > 100 µM | RXF 393 > 100 µM | SK-MEL-5 > 100 µM | SN12C > 100 µM | UO-31 > 100 µM

CC(=O)OC1CC[C@@]2(C)C(=CC[C@@H]3[C@@H]2CC[C@]2(C)Nc4c(cnn4-c4ccc(F)cc4)C[C@@H]32)C1 (stereo not given in full)
inactive: 786-0 3.26 µM | A549 24.3 µM | COLO 205 5.45 µM | EKVX 33.5 µM | HCC 2998 > 100 µM | HL-60 2.93 µM | HOP-62 5.5 µM | K562 21.4 µM | KM12 16.2 µM | MDA-MB-435 39.4 µM | NCI-H23 22.1 µM | NCI-H522 68.4 µM | NCI/ADR-RES 60.1 µM | OVCAR-3 > 39.4 µM | OVCAR-8 40 µM | RXF 393 2.64 µM | SK-MEL-5 25.9 µM | SN12C > 100 µM | UO-31 12.6 µM
20 µM: HCT-15

COC(=O)/C=C(C)/C=C\COC1CCCCO1 (stereo not given)
inactive: 786-0 > 100 µM | A549 > 100 µM | COLO 205 > 100 µM | EKVX > 100 µM | HCC 2998 > 100 µM | HL-60 > 100 µM | HOP-62 > 100 µM | K562 > 100 µM | KM12 > 100 µM | MDA-MB-435 > 100 µM | NCI-H23 > 100 µM | NCI-H522 > 100 µM | NCI/ADR-RES > 100 µM | OVCAR-3 > 100 µM | OVCAR-8 > 100 µM | RXF 393 > 100 µM | SK-MEL-5 > 100 µM | SN12C > 100 µM | UO-31 > 100 µM
> 100 µM: HCT-15
